Results reported in the supplement of paper PMC10307832.

Assays:
Experiment in all cases: relative viability (nuclei count vs DMSO), 5 days (fraction); higher = more cells survive
Seliciclib = compound: CC[C@H](CO)Nc1nc(NCc2ccccc2)c2ncn(C(C)C)c2n1 [Seliciclib]
Method in brief: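 On vehicle-anchored 1536-well plates, lung cancer cell lines held overnight at 37 °C were pinned with five library-drug doses (not always all listed) spaced by √10. With no medium change over 5 days, they were then fixed, permeabilised and Hoechst-stained in one step and imaged at 4×. MetaXpress counted nuclei, and viability is the median across plates of treated-well over vehicle-well nuclei. Acceptance needed control CV below 25% and at least one doubling.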

Seliciclib + Luminespib = compound: CC[C@H](CO)Nc1nc(NCc2ccccc2)c2ncn(C(C)C)c2n1 [Seliciclib] + CCNC(=O)c1noc(-c2cc(C(C)C)c(O)cc2O)c1-c1ccc(CN2CCOCC2)cc1 [Luminespib] (partner 0.01 µM)
Method in brief: (§1)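 Lung cancer cell lines were pin-tool dosed in 1536-well plates on the day after seeding, with either a lone drug or a fixed anchor-drug dose plus five library-drug doses (not always all listed) in √10 steps. Nuclei were counted on 4× images after 5 days. Relative viability is the ratio of treated-well to vehicle-well nuclei counts, with each value a median of duplicate plates.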

Seliciclib + Foretinib = compound: CC[C@H](CO)Nc1nc(NCc2ccccc2)c2ncn(C(C)C)c2n1 [Seliciclib] + COc1cc2c(Oc3ccc(NC(=O)C4(C(=O)Nc5ccc(F)cc5)CC4)cc3F)ccnc2cc1OCCCN1CCOCC1 [Foretinib] (partner 0.25 µM)
Method in brief: as §1

Seliciclib + OSI-027 = compound: CC[C@H](CO)Nc1nc(NCc2ccccc2)c2ncn(C(C)C)c2n1 [Seliciclib] + COc1cccc2cc(-c3nc([C@H]4CC[C@H](C(=O)O)CC4)n4ncnc(N)c34)[nH]c12 [OSI-027] (partner 0.5 µM)
Method in brief: as §1

Seliciclib + Tozasertib = compound: CC[C@H](CO)Nc1nc(NCc2ccccc2)c2ncn(C(C)C)c2n1 [Seliciclib] + Cc1cc(Nc2cc(N3CCN(C)CC3)nc(Sc3ccc(NC(=O)C4CC4)cc3)n2)n[nH]1 [Tozasertib] (partner 0.1 µM)
Method in brief: as §1

Seliciclib + Dasatinib = compound: CC[C@H](CO)Nc1nc(NCc2ccccc2)c2ncn(C(C)C)c2n1 [Seliciclib] + Cc1nc(Nc2ncc(C(=O)Nc3c(C)cccc3Cl)s2)cc(N2CCN(CCO)CC2)n1 [Dasatinib] (partner 0.075 µM)
Method in brief: as §1

Seliciclib + Phenformin = compound: CC[C@H](CO)Nc1nc(NCc2ccccc2)c2ncn(C(C)C)c2n1 [Seliciclib] + N=C(N)NC(=N)NCCc1ccccc1 [Phenformin] (partner 250 µM)
Method in brief: as §1

NCI-H1623 showed a relative viability (Seliciclib; 0.08 µM) of 0.968, a relative viability (Seliciclib; 0.253 µM) of 0.867 and a relative viability (Seliciclib; 0.8 µM) of 0.868. The relative viability (Seliciclib; 2.53 µM) was 1.01, the relative viability (Seliciclib; 8 µM) was 0.81 and the relative viability (Seliciclib + Luminespib; first compound 0.08 µM) was 0.66. The relative viability (Seliciclib + Luminespib; first compound 0.253 µM) was 0.367, the relative viability (Seliciclib + Luminespib; first compound 0.8 µM) was 0.568 and the relative viability (Seliciclib + Luminespib; first compound 2.53 µM) was 0.558. It also gave a relative viability (Seliciclib + Luminespib; first compound 8 µM) of 0.512, a relative viability (Seliciclib + Foretinib; first compound 0.08 µM) of 0.91 and a relative viability (Seliciclib + Foretinib; first compound 0.253 µM) of 0.773. For the same cell line, the relative viability (Seliciclib + Foretinib; first compound 0.8 µM) was 0.716, the relative viability (Seliciclib + Foretinib; first compound 2.53 µM) was 0.754 and the relative viability (Seliciclib + Foretinib; first compound 8 µM) was 0.864. For the same cell line, the relative viability (Seliciclib + OSI-027; first compound 0.08 µM) was 0.425, the relative viability (Seliciclib + OSI-027; first compound 0.253 µM) was 0.449 and the relative viability (Seliciclib + OSI-027; first compound 0.8 µM) was 0.396. It also gave a relative viability (Seliciclib + OSI-027; first compound 2.53 µM) of 0.415, a relative viability (Seliciclib + OSI-027; first compound 8 µM) of 0.415 and a relative viability (Seliciclib + Tozasertib; first compound 0.08 µM) of 0.414. It also gave a relative viability (Seliciclib + Tozasertib; first compound 0.253 µM) of 0.317, a relative viability (Seliciclib + Tozasertib; first compound 0.8 µM) of 0.363 and a relative viability (Seliciclib + Tozasertib; first compound 2.53 µM) of 0.418. It also gave a relative viability (Seliciclib + Tozasertib; first compound 8 µM) of 0.414, a relative viability (Seliciclib + Dasatinib; first compound 0.08 µM) of 0.562 and a relative viability (Seliciclib + Dasatinib; first compound 0.253 µM) of 0.479. The relative viability (Seliciclib + Dasatinib; first compound 0.8 µM) was 0.498, the relative viability (Seliciclib + Dasatinib; first compound 2.53 µM) was 0.53 and the relative viability (Seliciclib + Dasatinib; first compound 8 µM) was 0.603. The relative viability (Seliciclib + Phenformin; first compound 0.08 µM) was 0.609, the relative viability (Seliciclib + Phenformin; first compound 0.253 µM) was 0.545 and the relative viability (Seliciclib + Phenformin; first compound 0.8 µM) was 0.502. The relative viability (Seliciclib + Phenformin; first compound 2.53 µM) was 0.507 and the relative viability (Seliciclib + Phenformin; first compound 8 µM) was 0.538.
